Measured values published in patent US12098139B2, “Chemokine receptor modulators and uses thereof” (RAPT Therapeutics, Inc., priority 2018, dated 2024).

Target: T1, hCCR4 (Chem5-hCCR4 cells) (Homo sapiens, UniProt P51679)
T1 sequence (P51679 1-360): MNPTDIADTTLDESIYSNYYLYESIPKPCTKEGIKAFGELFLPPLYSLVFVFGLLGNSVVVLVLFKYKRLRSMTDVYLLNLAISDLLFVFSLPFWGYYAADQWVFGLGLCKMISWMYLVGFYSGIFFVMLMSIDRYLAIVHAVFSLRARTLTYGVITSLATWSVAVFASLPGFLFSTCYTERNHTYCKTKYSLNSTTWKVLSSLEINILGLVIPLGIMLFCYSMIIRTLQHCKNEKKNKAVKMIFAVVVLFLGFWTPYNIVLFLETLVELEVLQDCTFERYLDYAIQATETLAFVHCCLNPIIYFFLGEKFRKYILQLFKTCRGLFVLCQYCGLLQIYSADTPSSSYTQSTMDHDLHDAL
Test: Calcium flux assay (CCL22-stimulated, FLIPR Calcium 6 dye)
Format: cell-based
Conditions: Table 3, CCL22 1.5 nM, read-out: Potency (IC50)
Method: Calcium Flux Assay. Compounds were evaluated in a calcium flux assay substantially performed as follows. Chem5-hCCR4 cells (EMD Millipore, Hayward, CA; HTS009C) were cultured under standard conditions and frozen in aliquots of 10×10^6 cells/mL. The day prior to compound testing, a vial was rapidly thawed and pipetted into 20 mL media (DMEM+10% FBS+1% Pen-Strep+1% L-glutamine). Cells were harvested by centrifugation and re-suspended in fresh culture medium. 25 μL of cell suspension was seeded into 384-well plates (Corning, Tewksbury, MA; CellBind with black wall/clear bottom). The plates were centrifuged at 300 g for 10 seconds and incubated overnight at 37° C. and 5% CO2. The day of compound testing, media was removed from the plates and 25 μL serum free media was added to each well. Plates were returned to the incubator for 2 h. 25 μL assay buffer (Hank's balanced salt solution+20 mM HEPES pH 7.4) containing FLIPR Calcium 6 dye (Molecular Devices, Sunnyvale, CA; #R8191) and probenecid (2.5 mM) was added to each well and incubated at 37° C. and 5% CO2 for 2 h. Compounds in DMSO were added to the plates using an HP D300e digital dispenser, and all wells were normalized to contain 0.25 μL (0.5%) DMSO. Plates were incubated for 1 hour at 37° C. and 5% CO2. CCL22 (Peprotech; Rockyhill, NJ) was diluted in assay buffer containing 0.1% BSA to 7.5 nM (corresponding to 5×EC80 of 1.5 nM).
Assay plates and working solution of CCL22 were transferred to the FlexStation plate reader (Molecular Devices) at 37° C. for 5 min of equilibration. Fluorescence recordings at 485 excitation/525 emission were performed at 2.5 second intervals. At t=16 seconds, 12.5 μL of CCL22 solution was added to each well and reads continued for 30 seconds at 2.5 second intervals. The minimum fluorescence (Fmin) was calculated by averaging the reads prior to ligand addition and the change in fluorescence (ΔF) was calculated by subtracting the Fmin from the average of the reads following ligand addition. The response ΔF/Fmin was plotted as a function of the compound concentration and the IC50 values were determined by non-linear regression analysis using a 4-parameter fit in either PRISM software (GraphPad; La Jolla, CA) or Dotmatics Browser.

Row | Structure (SMILES) | IC50 [nM]
1 | C[C@@H](Nc1nc(N2CC([C@H]3CCCN([C@H]4C[C@@H](C(=O)O)C4)C3)C2)ncc1Br)c1ccc(Cl)cc1Cl [Example 9, (1S,3s)-3-((R)-3-(1-(5-bromo-4-(((R)-1-(2,4-dichlorophenyl)ethyl)amino)pyrimidin-2-yl)azetidin-3-yl)piperidin-1-yl)cyclobutane-1-carboxylic acid] | < 100
2 | C[C@@H](Nc1nc(N2CC([C@H]3CCCN(CCO)C3)C2)ncc1Cl)c1ccc(Cl)cc1Cl [Example 10, 2-((R)-3-(1-(5-chloro-4-(((R)-1-(2,4-dichlorophenyl)ethyl)amino)pyrimidin-2-yl)azetidin-3-yl)piperidin-1-yl)ethan-1-ol] | < 100
3 | C[C@@H](Nc1nc(N2CC([C@H]3CCCN(CCO)C3)C2)ncc1Br)c1ccc(Cl)cc1Cl [Example 11, 2-((R)-3-(1-(5-bromo-4-(((R)-1-(2,4-dichlorophenyl)ethyl)amino)pyrimidin-2-yl)azetidin-3-yl)piperidin-1-yl)ethan-1-ol] | < 100
4 | C[C@@H](Nc1nc(N2CC([C@H]3CCCN([C@H]4C[C@](C)(C(=O)O)C4)C3)C2)ncc1Cl)c1ccc(Cl)cc1Cl [Example 12, (1R,3r)-3-((R)-3-(1-(5-chloro-4-(((R)-1-(2,4-dichlorophenyl)ethyl)amino)pyrimidin-2-yl)azetidin-3-yl)piperidin-1-yl)-1-methylcyclobutane-1-carboxylic acid] | < 100
5 | C[C@@H](Nc1nc(N2CC([C@H]3CCCN([C@H]4C[C@](C)(C(=O)O)C4)C3)C2)ncc1Br)c1ccc(Cl)cc1Cl [Example 13, (1R,3r)-3-((R)-3-(1-(5-bromo-4-(((R)-1-(2,4-dichlorophenyl)ethyl)amino)pyrimidin-2-yl)azetidin-3-yl)piperidin-1-yl)-1-methylcyclobutane-1-carboxylic acid] | < 100
6 | C[C@@H](Nc1nc(N2CC([C@H]3CCCN(CCO)C3)C2)ncc1C#N)c1ccc(Cl)cc1Cl [Example 14, 4-(((R)-1-(2,4-dichlorophenyl)ethyl)amino)-2-(3-((R)-1-(2-hydroxyethyl)piperidin-3-yl)azetidin-1-yl)pyrimidine-5-carbonitrile] | < 100
7 | C[C@@H](Nc1nc(N2CC([C@H]3CCCN(CCO)C3)C2)ncc1C(F)(F)F)c1ccc(Cl)cc1Cl [Example 15, 2-((R)-3-(1-(4-(((R)-1-(2,4-dichlorophenyl)ethyl)amino)-5-(trifluoromethyl)pyrimidin-2-yl)azetidin-3-yl)piperidin-1-yl)ethan-1-ol] | > 500
8 | Cc1cnc(N2CC([C@H]3CCCN(CCN4CCCC4=O)C3)C2)nc1N[C@H](C)c1ccc(Cl)cc1Cl [Example 16, 1-(2-((R)-3-(1-(4-(((R)-1-(2,4-dichlorophenyl)ethyl)amino)-5-methylpyrimidin-2-yl)azetidin-3-yl)piperidin-1-yl)ethyl)pyrrolidin-2-one] | < 100
9 | Cc1cnc(N2CC([C@H]3CCCN([C@H]4C[C@@H](C(=O)O)C4)C3)C2)nc1N[C@H](C)c1ccc(Cl)cc1Cl [Example 17, (1S,3s)-3-((R)-3-(1-(4-(((R)-1-(2,4-dichlorophenyl)ethyl)amino)-5-methylpyrimidin-2-yl)azetidin-3-yl)piperidin-1-yl)cyclobutane-1-carboxylic acid] | < 100
10 | Cc1cnc(N2CC([C@H]3CCCN(C4CC(CO)C4)C3)C2)nc1N[C@H](C)c1ccc(Cl)cc1Cl (stereo partly drawn) [Example 18, (3-((R)-3-(1-(4-(((R)-1-(2,4-dichlorophenyl)ethyl)amino)-5-methylpyrimidin-2-yl)azetidin-3-yl)piperidin-1-yl)cyclobutyl)methanol] | < 100
11 | Cc1cnc(N2CC([C@H]3CCCN(CC(C)(C)O)C3)C2)nc1N[C@H](C)c1ccc(Cl)cc1Cl [Example 19, 1-((R)-3-(1-(4-(((R)-1-(2,4-dichlorophenyl)ethyl)amino)-5-methylpyrimidin-2-yl)azetidin-3-yl)piperidin-1-yl)-2-methylpropan-2-ol] | < 100
